System: HepG2/C3A
Test: Drug-induced liver injury (DILI) simulated by adjusting air supply from the well bottom, island-shaped 3Ds on PDMS
Format: cell-based, human
Details: 24 h exposure, highest concentration 20 mM
Method: Compounds were dissolved at 200 times the highest test concentration in 100% DMSO. […] The final DMSO concentration was set constant and less than 0.4% over the tested dilutions. […] Therefore, serially-diluted compounds were finally diluted in situ at 1/2 and mixed by a gentle rocking motion a few times. […]
Cells grown as island 3Ds in the gas-permeable PDMS membrane were exposed to drug treatments described above. […] The plates were equilibrated to 5% CO2 and 3TC and measured by Opera (PerkinElmer).
For detailed global image acquisition, a 20× objective was used in spinning-disc confocal mode. […] Then the cell area was estimated for selected nuclei in the regions, and TMRM emission intensity in the cell regions was calculated for the selected cells over the 4 designated fields per well. […] For the dose-response and Z′ values, the intensity values were analyzed on a projection image representing the peak intensity values for each of 4 Z-planes projected onto a single image. For the detailed analysis of the entire 3Ds, each Z-plane was individually analyzed.

For `CC(=O)Nc1ccc(O)cc1` [Acetaminophen, acetaminophen], the “toxicity response (dose response curve)” value (3Ds on PDMS membrane left entirely bare) was “apparently unresponsive” and the “toxicity response (dose response curve)” value (3Ds on PDMS membrane partially-sealed) was “suggesting a DILI effect”.

— patent US20160215267A1, “METHODS FOR GENERATING 3D CELL CULTURE MODEL IN HIGH RESPIRATION ENVIRONMENTS FOR HIGH-CONTENT ANALYSES AND SCREENING” (IKKO-ZU CORPORATION, priority 2015, published 2016)
